# Measured values taken from patent US20220202905A1, “COMPOSITION FOR PREVENTING OR TREATING NEUROTROPHIC KERATITIS WHICH CONTAINS PACAP PEPTIDE OR STABILIZED PACAP PEPTIDE” (SENJU PHARMACEUTICAL CO., LTD., priority 2019, published 2022).
# Square brackets hold non-standard residues; d marks the D form. Peptide text beside a SMILES is read from it. Ala(1H-tetrazol-5-yl) = N[C@@H](Cc1nnn[nH]1)C(=O)O; Nle = CCCC[C@H](N)C(=O)O
# Assay: Peptide stability test, Tris buffer (pH 7.0), 60° C. storage, HPLC remaining rate
# Assay type: physicochemical
# Settings: for remaining rate after correction for water, 60° C., 2 weeks preservation / remaining rate after correction for water, 60° C., 1 week preservation: 100 μM in Tris buffer pH 7.0
# Method: Peptides 1, 2 and 6 to 9 synthesized in Example 2 were weighed and dissolved in Tris buffer (pH 7.0) to prepare 1.0 mM peptide solutions. Each solution was filtered with a Chromatdisk (product of Merck Millipore, Millex-GV, 0.22 μm). The filtrate was diluted to 100 μM with Tris buffer (pH 7.0) and dispensed into a tube (Protein LoBind Tube by Eppendorf Co.). The prepared peptide solutions were incubated for 1 week or 2 weeks in a 60° C. thermostatic bath to obtain stored samples. A simultaneously prepared sample among the peptide solutions that was not stored was used as a standard sample (initial sample). The standard sample and the stored samples were stored at −30° C. until sample analysis. Each stored sample was measured under the following HPLC analysis conditions 2, and the remaining rate after correction for water for each peptide among the stored samples was calculated in the same manner as Example 3. Guard column: XSelect CSH C18 by Waters Co., 5 μm, 4.6×20 mm Guard Cartridge Detection wavelength: 220 nm Mobile phase A: 0.1% formic acid aqueous solution Mobile phase B: 0.1% acetonitrile formate solution Measuring time: 20 minutes Measuring sample injection rate: 50 μL Flow rate: 1.0 mL/min Column temperature: 40° C. Sample cooler: 25° C. Mobile phase delivery: The mixing ratio of mobile phase A and mobile phase B was varied as shown in Table 5 for linear concentration gradient control. Peptides 12 to 25, 27 and 28 synthesized in Example 2 were weighed and dissolved in Tris buffer (pH 7.0) to prepare 1.0 mM peptide solutions. Each solution was filtered with a Chromatdisk (product of Merck Millipore, Millex-GV, 0.22 μm). The filtrate was diluted to 100 μM with Tris buffer (pH 7.0) and dispensed into a tube (Protein LoBind Tube by Eppendorf Co.). The prepared peptide solutions were incubated for one week or 2 weeks in a 60° C. thermostatic bath to obtain stored samples. A simultaneously prepared sample among the peptide solutions that was not stored was used as a standard sample (initial sample). The standard sample and the stored samples were stored at −30° C. until sample analysis. The remaining rate after correction for water for each peptide among the stored samples was calculated in the same manner as Example 4, and the results are shown in Table 7. Peptides 29 to 34 synthesized in Example 2 were weighed and dissolved in Tris buffer (pH 7.0) to prepare 1.0 mM peptide solutions. Each solution was filtered with a Chromatdisk (product of Merck Millipore, Millex-GV, 0.22 μm). The filtrate was diluted to 100 μM with Tris buffer (pH 7.0) and dispensed into a tube (Protein LoBind Tube by Eppendorf Co.). The prepared peptide solutions were incubated for 2 weeks in a 60° C. thermostatic bath to obtain stored samples. A simultaneously prepared sample among the peptide solutions that was not stored was used as a standard sample (initial sample). The standard sample and the stored samples were stored at −30° C. until sample analysis. The remaining rate after correction for water for each peptide among the stored samples was calculated in the same manner as Example 4, and the results are shown in Table 7-2. Peptide 26 synthesized in Example 2 was weighed and dissolved in Tris buffer (pH 7.0) to prepare a 1.0 mM peptide solution. The solution was filtered with a Chromatdisk (product of Merck Millipore, Millex-GV, 0.22 μm). The filtrate was diluted to 100 μM with Tris buffer (pH 7.0) and dispensed into a tube (Protein LoBind Tube by Eppendorf Co.). The prepared peptide solution was incubated for one week or 2 weeks in a 60° C. thermostatic bath to obtain stored samples. A simultaneously prepared sample among the peptide solutions that was not stored was used as a standard sample (initial sample). The standard sample and the stored sample were stored at −30° C. until sample analysis. […]
compound,measurement,setting,value
CC[C@H](C)[C@H](NC(=O)[C@H](C)NC(=O)[C@H](Cc1nnn[nH]1)NC(=O)[C@H](C)NC(=O)[C@H](Cc1c[nH]cn1)NC(C)=O)C(=O)N[C@@H](Cc1ccccc1)C(=O)N[C@H](C(=O)N[C@@H](Cc1nnn[nH]1)C(=O)N[C@@H](CO)C(=O)N[C@@H](Cc1ccc(O)cc1)C(=O)N[C@@H](CO)C(=O)N[C@@H](CCCNC(=N)N)C(=O)N[C@@H](Cc1ccc(O)cc1)C(=O)N[C@@H](CCCNC(=N)N)C(=O)N[C@@H](CCCCN)C(=O)N[C@@H](CCC(N)=O)C(=O)N[C@@H](C)C(=O)N[C@@H](C)C(=O)N[C@H](C(=O)N[C@@H](CCCCN)C(=O)N[C@@H](CCCCN)C(=O)N[C@@H](Cc1ccc(O)cc1)C(=O)N[C@@H](CC(C)C)C(=O)N[C@@H](C)C(=O)N[C@@H](C)C(=O)N[C@H](C(=O)N[C@@H](CC(C)C)C(N)=O)C(C)C)C(C)C)[C@@H](C)O [Peptide 33] (Ac-HA[Ala(1H-tetrazol-5-yl)]AIFT[Ala(1H-tetrazol-5-yl)]SYSRYRKQAAVKKYLAAVL-NH2),"remaining rate after correction for water, 60° C., 2 weeks preservation",Table 7-2,85.3%
CCCC[C@H](NC(=O)[C@H](CCC(N)=O)NC(=O)[C@H](CCCCN)NC(=O)[C@H](CCCNC(=N)N)NC(=O)[C@H](Cc1ccc(O)cc1)NC(=O)[C@H](CCCNC(=N)N)NC(=O)[C@H](CO)NC(=O)[C@H](Cc1ccc(O)cc1)NC(=O)[C@H](CO)NC(=O)[C@H](Cc1nnn[nH]1)NC(=O)[C@@H](NC(=O)[C@H](Cc1ccccc1)NC(=O)[C@@H](NC(=O)CNC(=O)[C@H](Cc1nnn[nH]1)NC(=O)[C@H](CO)NC(=O)[C@H](Cc1c[nH]cn1)NC(C)=O)[C@@H](C)CC)[C@@H](C)O)C(=O)N[C@@H](C)C(=O)N[C@H](C(=O)N[C@@H](CCCCN)C(=O)N[C@@H](CCCCN)C(=O)N[C@@H](Cc1ccc(O)cc1)C(=O)N[C@@H](CC(C)C)C(=O)N[C@@H](C)C(=O)N[C@@H](C)C(=O)N[C@H](C(=O)N[C@@H](CC(C)C)C(N)=O)C(C)C)C(C)C [Peptide 8] (Ac-HS[Ala(1H-tetrazol-5-yl)]GIFT[Ala(1H-tetrazol-5-yl)]SYSRYRKQ[Nle]AVKKYLAAVL-NH2),expected remaining rate for 2 years at room temperature,"buffer, 336 h",≥ 90%
CC[C@H](C)[C@H](NC(=O)CNC(=O)[C@H](Cc1nnn[nH]1)NC(=O)[C@H](CO)NC(=O)[C@H](Cc1c[nH]cn1)NC(C)=O)C(=O)N[C@@H](Cc1ccccc1)C(=O)N[C@H](C(=O)N[C@@H](Cc1nnn[nH]1)C(=O)N[C@@H](CO)C(=O)N[C@@H](Cc1ccc(O)cc1)C(=O)N[C@@H](CO)C(=O)N[C@@H](CCCNC(=N)N)C(=O)N[C@@H](Cc1ccc(O)cc1)C(=O)N[C@@H](CCCNC(=N)N)C(=O)N[C@@H](CCCNC(=N)N)C(=O)N[C@@H](CCC(N)=O)C(=O)N[C@@H](CC(C)C)C(=O)N[C@@H](C)C(=O)N[C@H](C(=O)N[C@@H](CCCNC(=N)N)C(=O)N[C@@H](CCCNC(=N)N)C(=O)N[C@@H](Cc1ccc(O)cc1)C(=O)N[C@@H](CC(C)C)C(=O)N[C@@H](C)C(=O)N[C@@H](C)C(=O)N[C@H](C(=O)N[C@@H](CC(C)C)C(N)=O)C(C)C)C(C)C)[C@@H](C)O [Peptide 21] (Ac-HS[Ala(1H-tetrazol-5-yl)]GIFT[Ala(1H-tetrazol-5-yl)]SYSRYRRQLAVRRYLAAVL-NH2),"remaining rate after correction for water, 60° C., 1 week preservation",Table 7,97.8%
same,"remaining rate after correction for water, 60° C., 2 weeks preservation",Table 7,93.5%
CC[C@H](C)[C@H](NC(=O)CNC(=O)[C@H](Cc1nnn[nH]1)NC(=O)[C@H](CO)NC(=O)[C@H](Cc1c[nH]cn1)NC(C)=O)C(=O)N[C@@H](Cc1ccccc1)C(=O)N[C@H](C(=O)N[C@@H](Cc1nnn[nH]1)C(=O)N[C@@H](CO)C(=O)N[C@@H](Cc1ccc(O)cc1)C(=O)N[C@@H](CO)C(=O)N[C@@H](CCCNC(=N)N)C(=O)N[C@@H](Cc1ccc(O)cc1)C(=O)N[C@@H](CCCNC(=N)N)C(=O)N[C@@H](CCCCN)C(=O)N[C@@H](C)C(=O)N[C@@H](C)C(=O)N[C@@H](C)C(=O)N[C@H](C(=O)N[C@@H](CCCCN)C(=O)N[C@@H](CCCCN)C(=O)N[C@@H](Cc1ccc(O)cc1)C(=O)N[C@@H](CC(C)C)C(=O)N[C@@H](C)C(=O)N[C@@H](C)C(=O)N[C@H](C(=O)N[C@@H](CC(C)C)C(N)=O)C(C)C)C(C)C)[C@@H](C)O [Peptide 28] (Ac-HS[Ala(1H-tetrazol-5-yl)]GIFT[Ala(1H-tetrazol-5-yl)]SYSRYRKAAAVKKYLAAVL-NH2),"remaining rate after correction for water, 60° C., 1 week preservation",Table 7,94.6%
same,"remaining rate after correction for water, 60° C., 2 weeks preservation",Table 7,90.5%
CC[C@H](C)[C@H](NC(=O)CNC(=O)[C@H](Cc1nnn[nH]1)NC(=O)[C@H](CO)NC(=O)[C@@H](N)Cc1c[nH]cn1)C(=O)N[C@@H](Cc1ccccc1)C(=O)N[C@H](C(=O)N[C@@H](Cc1nnn[nH]1)C(=O)N[C@@H](CO)C(=O)N[C@@H](Cc1ccc(O)cc1)C(=O)N[C@@H](CO)C(=O)N[C@@H](CCCNC(=N)N)C(=O)N[C@@H](Cc1ccc(O)cc1)C(=O)N[C@@H](CCCNC(=N)N)C(=O)N[C@@H](CCCCN)C(=O)N[C@@H](CCC(N)=O)C(=O)N[C@@H](CC(C)C)C(=O)N[C@@H](C)C(=O)N[C@H](C(=O)N[C@@H](CCCCN)C(=O)N[C@@H](CCCCN)C(=O)N[C@@H](Cc1ccc(O)cc1)C(=O)N[C@@H](CC(C)C)C(=O)N[C@@H](C)C(=O)N[C@@H](C)C(=O)N[C@H](C(=O)N[C@@H](CC(C)C)C(N)=O)C(C)C)C(C)C)[C@@H](C)O [Peptide 7] (H-HS[Ala(1H-tetrazol-5-yl)]GIFT[Ala(1H-tetrazol-5-yl)]SYSRYRKQLAVKKYLAAVL-NH2),"remaining rate after correction for water, 60° C., 1 week preservation","Table 6, HPLC conditions 2",91.7%
same,"remaining rate after correction for water, 60° C., 2 weeks preservation","Table 6, HPLC conditions 2",84.8%
CC[C@H](C)[C@H](NC(=O)[C@H](C)NC(=O)[C@H](Cc1nnn[nH]1)NC(=O)[C@H](CO)NC(=O)[C@H](Cc1c[nH]cn1)NC(C)=O)C(=O)N[C@@H](Cc1ccccc1)C(=O)N[C@H](C(=O)N[C@@H](Cc1nnn[nH]1)C(=O)N[C@@H](CO)C(=O)N[C@@H](Cc1ccc(O)cc1)C(=O)N[C@@H](CO)C(=O)N[C@@H](CCCNC(=N)N)C(=O)N[C@@H](Cc1ccc(O)cc1)C(=O)N[C@@H](CCCNC(=N)N)C(=O)N[C@@H](CCCCN)C(=O)N[C@@H](C)C(=O)N[C@@H](C)C(=O)N[C@@H](C)C(=O)N[C@H](C(=O)N[C@@H](CCCCN)C(=O)N[C@@H](CCCCN)C(=O)N[C@@H](Cc1ccc(O)cc1)C(=O)N[C@@H](CC(C)C)C(=O)N[C@@H](C)C(=O)N[C@@H](C)C(=O)N[C@H](C(=O)N[C@@H](CC(C)C)C(N)=O)C(C)C)C(C)C)[C@@H](C)O [Peptide 34] (Ac-HS[Ala(1H-tetrazol-5-yl)]AIFT[Ala(1H-tetrazol-5-yl)]SYSRYRKAAAVKKYLAAVL-NH2),"remaining rate after correction for water, 60° C., 2 weeks preservation",Table 7-2,96.9%
CC[C@H](C)[C@H](NC(=O)[C@H](C)NC(=O)[C@H](Cc1nnn[nH]1)NC(=O)[C@H](CO)NC(=O)[C@H](Cc1c[nH]cn1)NC(C)=O)C(=O)N[C@@H](Cc1ccccc1)C(=O)N[C@H](C(=O)N[C@@H](Cc1nnn[nH]1)C(=O)N[C@@H](CO)C(=O)N[C@@H](Cc1ccc(O)cc1)C(=O)N[C@@H](CO)C(=O)N[C@@H](CCCNC(=N)N)C(=O)N[C@@H](Cc1ccc(O)cc1)C(=O)N[C@@H](CCCNC(=N)N)C(=O)N[C@@H](CCCCN)C(=O)N[C@@H](CCC(N)=O)C(=O)N[C@@H](C)C(=O)N[C@@H](C)C(=O)N[C@H](C(=O)N[C@@H](CCCCN)C(=O)N[C@@H](CCCCN)C(=O)N[C@@H](Cc1ccc(O)cc1)C(=O)N[C@@H](CC(C)C)C(=O)N[C@@H](C)C(=O)N[C@@H](C)C(=O)N[C@H](C(=O)N[C@@H](CC(C)C)C(N)=O)C(C)C)C(C)C)[C@@H](C)O [Peptide 32] (Ac-HS[Ala(1H-tetrazol-5-yl)]AIFT[Ala(1H-tetrazol-5-yl)]SYSRYRKQAAVKKYLAAVL-NH2),"remaining rate after correction for water, 60° C., 2 weeks preservation",Table 7-2,88.7%
